Experimental data taken from ChEMBL document CHEMBL3259750, “The antibacterial properties of sulfur containing flavonoids” (2014).
Active and inactive are the calls of the source. The rule behind the calls is not given here.

Experiments:
[1] = system: Staphylococcus aureus; assay: Antibacterial activity against Staphylococcus aureus ATCC 25923 assessed as diameter of growth inhibition zone at 0.5 mg/ml after 24 hrs by disk diffusion assay; format: functional; settings: for zone of inhibition at 500 µg/mL: ATCC 25923, 24 h, read-out: DIZ
[2] = system: Escherichia coli; assay: Antibacterial activity against Escherichia coli ATCC 25922 assessed as diameter of growth inhibition zone at 1 mg/ml after 24 hrs by disk diffusion assay; format: functional; settings: for zone of inhibition at 1000 µg/mL: ATCC 25922, 24 h, read-out: DIZ
[3] = system: Escherichia coli; assay: Antibacterial activity against Escherichia coli ATCC 25922 assessed as diameter of growth inhibition zone at 0.5 mg/ml after 24 hrs by disk diffusion assay; format: functional; settings: for zone of inhibition at 500 µg/mL: ATCC 25922, 24 h, read-out: DIZ
[4] = system: Escherichia coli; assay: Antibacterial activity against Escherichia coli ATCC 25922 assessed as diameter of growth inhibition zone at 0.25 mg/ml after 24 hrs by disk diffusion assay; format: functional; settings: for zone of inhibition at 250 µg/mL: ATCC 25922, 24 h, read-out: DIZ
[5] = system: Staphylococcus aureus; assay: Antibacterial activity against Staphylococcus aureus ATCC 25923 assessed as diameter of growth inhibition zone at 0.25 mg/ml after 24 hrs by disk diffusion assay; format: functional; settings: for zone of inhibition at 250 µg/mL: ATCC 25923, 24 h, read-out: DIZ
[6] = system: Staphylococcus aureus; assay: Antibacterial activity against Staphylococcus aureus ATCC 25923 assessed as diameter of growth inhibition zone at 1 mg/ml after 24 hrs by disk diffusion assay; format: functional; settings: for zone of inhibition at 1000 µg/mL: ATCC 25923, 24 h, read-out: DIZ
[7] = system: Escherichia coli; assay: Antibacterial activity against Escherichia coli ATCC 25922 assessed as growth inhibition after 18 hrs by colorimetric microdilution technique; format: functional; settings: ATCC 25922, 18 h
[8] = system: Staphylococcus aureus; assay: Antibacterial activity against Staphylococcus aureus ATCC 25923 assessed as growth inhibition after 18 hrs by colorimetric microdilution technique; format: functional; settings: ATCC 25923, 18 h
[9] = system: Candida albicans; assay: Antifungal activity against Candida albicans ATCC 90028; format: functional, organism-based
[10] = system: Escherichia coli; assay: Antibacterial activity against Escherichia coli ATCC 25922 assessed as diameter of growth inhibition zone at 10 ug/disk after 24 hrs by disk diffusion assay; format: functional, organism-based
[11] = system: Staphylococcus aureus; assay: Antibacterial activity against Staphylococcus aureus ATCC 25923 assessed as diameter of growth inhibition zone at 10 ug/disk after 24 hrs by disk diffusion assay; format: functional, organism-based

CCN(CC)C(=S)SC1C(=O)c2cc(I)cc(I)c2OC1c1ccc(Cl)cc1 (stereo not given)
diameter of the inhibition zone (DIZ) [1]: inactive | diameter of the inhibition zone (DIZ) [2]: inactive | diameter of the inhibition zone (DIZ) [3]: inactive | diameter of the inhibition zone (DIZ) [4]: inactive | diameter of the inhibition zone (DIZ) [5]: inactive | diameter of the inhibition zone (DIZ) [6]: inactive

CCN(CC)[c+]1sc2c(s1)C(c1ccc(OC)cc1)Oc1ccc(Br)cc1-2.[O-][Cl+3]([O-])([O-])[O-] (stereo not given)
zone of inhibition at 500 µg/mL [1]: 9.66 mm | zone of inhibition at 1000 µg/mL [2]: 7.66 mm | zone of inhibition at 500 µg/mL [3]: 7.33 mm | zone of inhibition at 250 µg/mL [4]: 6.66 mm | zone of inhibition at 250 µg/mL [5]: 7.66 mm | zone of inhibition at 1000 µg/mL [6]: 13.7 mm | MIC [7]: 125 µg/mL | MIC [8]: 3.9 µg/mL

CCN(CC)[c+]1sc2c(s1)C(c1ccc(Cl)cc1)Oc1ccc(Br)cc1-2.[O-][Cl+3]([O-])([O-])[O-] (stereo not given)
zone of inhibition at 500 µg/mL [1]: 17.3 mm | zone of inhibition at 1000 µg/mL [2]: 11.7 mm | zone of inhibition at 500 µg/mL [3]: 10.7 mm | zone of inhibition at 250 µg/mL [4]: 8.33 mm | zone of inhibition at 250 µg/mL [5]: 15 mm | zone of inhibition at 1000 µg/mL [6]: 20.3 mm | MIC [7]: 3.9 µg/mL | MIC [8]: 0.48 µg/mL

CCN(CC)[c+]1sc2c(s1)C(c1ccc(Cl)cc1)Oc1c(Br)cc(Br)cc1-2.F[B-](F)(F)F (stereo not given)
zone of inhibition at 500 µg/mL [1]: 18.7 mm | zone of inhibition at 1000 µg/mL [2]: 10.7 mm | diameter of the inhibition zone (DIZ) [3]: inactive | diameter of the inhibition zone (DIZ) [4]: inactive | Activity [9]: Active | zone of inhibition at 250 µg/mL [5]: 17.7 mm | zone of inhibition at 1000 µg/mL [6]: 21.3 mm | MIC [7]: 7.81 µg/mL | MIC [8]: 1.95 µg/mL

CCN(CC)[c+]1sc2c(s1)C(c1ccc(Cl)cc1)Oc1ccccc1-2.F[B-](F)(F)F (stereo not given)
zone of inhibition at 500 µg/mL [1]: 14.3 mm | diameter of the inhibition zone (DIZ) [2]: inactive | diameter of the inhibition zone (DIZ) [3]: inactive | diameter of the inhibition zone (DIZ) [4]: inactive | Activity [9]: Active | zone of inhibition at 250 µg/mL [5]: 7.33 mm | zone of inhibition at 1000 µg/mL [6]: 16.3 mm | MIC [7]: 62.5 µg/mL | MIC [8]: 1.95 µg/mL

CCN(CC)[c+]1sc2c(s1)C(c1ccc(Cl)cc1)Oc1c(I)cc(I)cc1-2.[O-][Cl+3]([O-])([O-])[O-] (stereo not given)
zone of inhibition at 500 µg/mL [1]: 14 mm | zone of inhibition at 1000 µg/mL [2]: 9.33 mm | zone of inhibition at 500 µg/mL [3]: 8.33 mm | zone of inhibition at 250 µg/mL [4]: 7.66 mm | zone of inhibition at 250 µg/mL [5]: 8.33 mm | zone of inhibition at 1000 µg/mL [6]: 16.7 mm | MIC [7]: 7.81 µg/mL | MIC [8]: 1.95 µg/mL

CCN(CC)C(=S)SC1C(=O)c2cc(Br)ccc2OC1c1ccc(Cl)cc1 (stereo not given)
diameter of the inhibition zone (DIZ) [1]: inactive | diameter of the inhibition zone (DIZ) [2]: inactive | diameter of the inhibition zone (DIZ) [3]: inactive | diameter of the inhibition zone (DIZ) [4]: inactive | diameter of the inhibition zone (DIZ) [5]: inactive | diameter of the inhibition zone (DIZ) [6]: inactive

CCN(CC)C(=S)SC1C(=O)c2ccccc2OC1c1ccc(Cl)cc1 (mixture of isomers)
diameter of the inhibition zone (DIZ) [1]: inactive | diameter of the inhibition zone (DIZ) [2]: inactive | diameter of the inhibition zone (DIZ) [3]: inactive | diameter of the inhibition zone (DIZ) [4]: inactive | diameter of the inhibition zone (DIZ) [5]: inactive | diameter of the inhibition zone (DIZ) [6]: inactive

CCN(CC)C(=S)SC1C(=O)c2cc(Br)cc(Br)c2OC1c1ccc(Cl)cc1 (stereo not given)
diameter of the inhibition zone (DIZ) [1]: inactive | diameter of the inhibition zone (DIZ) [2]: inactive | diameter of the inhibition zone (DIZ) [3]: inactive | diameter of the inhibition zone (DIZ) [4]: inactive | diameter of the inhibition zone (DIZ) [5]: inactive | diameter of the inhibition zone (DIZ) [6]: inactive

CCN(CC)[c+]1sc2c(s1)C(c1ccc(Cl)cc1)Oc1c(I)cc(I)cc1-2.F[B-](F)(F)F (stereo not given)
MIC [7]: 15.6 µg/mL | MIC [8]: 0.97 µg/mL

CCN(CC)[c+]1sc2c(s1)C(c1ccc(Cl)cc1)Oc1ccc(Br)cc1-2.F[B-](F)(F)F (stereo not given)
MIC [7]: 3.9 µg/mL | MIC [8]: 0.48 µg/mL

CCN(CC)[c+]1sc2c(s1)C(c1ccc(OC)cc1)Oc1ccc(Br)cc1-2.F[B-](F)(F)F (stereo not given)
MIC [7]: 125 µg/mL | MIC [8]: 1.95 µg/mL

CCN(CC)C(=S)SC1C(=O)c2cc(Br)ccc2OC1c1ccc(OC)cc1 (mixture of isomers)
diameter of the inhibition zone (DIZ) [1]: inactive | diameter of the inhibition zone (DIZ) [2]: inactive | diameter of the inhibition zone (DIZ) [3]: inactive | diameter of the inhibition zone (DIZ) [4]: inactive | diameter of the inhibition zone (DIZ) [5]: inactive | diameter of the inhibition zone (DIZ) [6]: inactive

GENTAMICIN
inhibition zone (IZ) [10]: 15.8 mm | inhibition zone (IZ) [11]: 18.3 mm
